Drawing on US8002614B2, “Microbiocidal control in the processing of meat-producing four-legged animals” (priority 2005, dated 2011), this text covers water solubility for two compounds.

The format of this data set is physicochemical. From the text:
In many high output meat packing plants, space to install the biocide feeder in an easily accessible location is not readily available. The smaller area required for a BCDMH feeder system relative to a DBDMH system, is advantageous with respect to installation flexibility. For example, because of higher bromine output, a plant utilizing BCDMH may utilize a smaller number of biocide feeders than a plant utilizing DBDMH feeders. Also, because each point of application of aqueous biocide in the plant requires a certain bromine residual in a certain flow of water, the much higher output of bromine from a BCDMH feeder to achieve the desired bromine residual, requires much less water flow to the feeder for BCDMH than DBDMH. Since the source of water and the feeder are often quite distant from each other, a need for providing a new line just for the feeder is disadvantageous and expensive. But, pursuant to this invention, oftentimes excess water supplied to existing equipment near the feeder can be employed thereby eliminating the need for installation of a new special water line to the feeder. In other words, since BCDMH requires less than half the water flow of DBDMH, in many situations this water source would have sufficient flow for BCDMH while that same flow would be insufficient for DBDMH. […]

As to `CC1(C)C(=O)N(Cl)C(=O)N1Br` [BCDMH, N,N′-bromochloro-5,5-dimethylhydantoin], the water solubility came to 890 ppm.

On to `CC1(C)C(=O)N(Br)C(=O)N1Br` [DBDMH, 1,3-dibromo-5,5-dimethylhydantoin], for which the water solubility was determined as 405 ppm.
